Assay results as given in patent publication US20260297042A1, “BIARYLAMIDE DERIVATIVES AND THEIR USE AS PKMYT1 INHIBITORS” (CANCER RESEARCH TECHNOLOGY LIMITED, priority 2023, published 2026).

Key:
[1] = target: T1, Human PKMYT1 (Homo sapiens, UniProt Q99640); assay: PKMYT1 biochemical ADP-Glo enzymatic assay; details: ADP-Glo
T1 construct: Human PKMYT1 75-362 was cloned as a TEV cleavable 6xHis fusion; 6xHis (TEV cleavable) (cleaved yes); made in house; host or cells: bacterial cells
T1 sequence (Q99640 75-362): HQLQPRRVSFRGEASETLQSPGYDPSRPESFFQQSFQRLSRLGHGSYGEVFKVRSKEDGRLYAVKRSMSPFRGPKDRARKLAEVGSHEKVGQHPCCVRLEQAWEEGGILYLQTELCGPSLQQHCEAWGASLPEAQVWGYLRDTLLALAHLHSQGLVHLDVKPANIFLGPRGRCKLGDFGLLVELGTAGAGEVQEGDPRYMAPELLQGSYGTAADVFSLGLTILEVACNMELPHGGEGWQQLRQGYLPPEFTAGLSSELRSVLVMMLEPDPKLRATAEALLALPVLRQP
Summary of the method: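 PKMYT1 75-362 (His-cleaved, bacterial) 15 nM; ATP 500 µM; HEPES pH 7.5, MgCl2, EGTA, Brij-35, 1% DMSO; 60 min, 26 °C; ADP-Glo Max luminescence; 10-pt 3-fold titration → IC50; replicates within 3-fold, r2 >0.9.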

[2] = target: T2, WEE1 (Homo sapiens, UniProt P30291); assay: Selectivity versus WEE1 assay (ADP-Glo enzymatic assay); type: biochemical; details: for IC50: ADP-Glo; for PKMYT1 vs. WEE1 selectivity: fold difference in selectivity for PKMYT1 over WEE1
T2 construct: purchased Thermo Fisher PR7373A
Summary of the method: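 15 nM WEE1, 30 µM ATP, 50 mM HEPES pH 7.5, 10 mM MgCl2, 1 mM EGTA, 0.01% Brij-35, 1% DMSO; 60 min, 26° C; ADP-Glo luminescence; IC50 from curve fit, replicates within 3-fold, r2 >0.9.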

[3] = tested on: OVCAR 3 cells; assay: Cancer cell line proliferation assay, ATP-based cell viability (Cell Titre Glow), OVCAR 3 (CCNE1-amplified); details: KYSE30 (normal CCNE1) GI50 vs. OVCAR 3 (CCNE1-amplified) GI50
Summary of the method: (§1)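 CellTiter-Glo luminescence endpoint; PKMYT1 inhibitor exposure; GI50 = conc. for 50% growth inhibition, curve-fitted.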

[4] = tested on: KYSE-30 cells; assay: Cancer cell line proliferation assay, ATP-based cell viability (Cell Titre Glow), KYSE-30 (normal CCNE1); details: Homo sapiens, KYSE-30 cells (normal CCNE1), concentration that achieves 50% cell growth proliferation inhibition, read-out: KYSE30 Gl50
Summary of the method: as §1

[5] = target: T3, Cellular PKMYT1 Biomarker CDK1 pT14 (Homo sapiens, UniProt Q99640); assay: Inhibition of cellular PKMYT1 biomarker CDK1 pT14 in OVCAR 3 cells (immunoblot); type: cell-based; details: 20 hours incubation
T3 construct: read-out CDK1 phospho-T14 immunoblot
T3 sequence (Q99640 1-499): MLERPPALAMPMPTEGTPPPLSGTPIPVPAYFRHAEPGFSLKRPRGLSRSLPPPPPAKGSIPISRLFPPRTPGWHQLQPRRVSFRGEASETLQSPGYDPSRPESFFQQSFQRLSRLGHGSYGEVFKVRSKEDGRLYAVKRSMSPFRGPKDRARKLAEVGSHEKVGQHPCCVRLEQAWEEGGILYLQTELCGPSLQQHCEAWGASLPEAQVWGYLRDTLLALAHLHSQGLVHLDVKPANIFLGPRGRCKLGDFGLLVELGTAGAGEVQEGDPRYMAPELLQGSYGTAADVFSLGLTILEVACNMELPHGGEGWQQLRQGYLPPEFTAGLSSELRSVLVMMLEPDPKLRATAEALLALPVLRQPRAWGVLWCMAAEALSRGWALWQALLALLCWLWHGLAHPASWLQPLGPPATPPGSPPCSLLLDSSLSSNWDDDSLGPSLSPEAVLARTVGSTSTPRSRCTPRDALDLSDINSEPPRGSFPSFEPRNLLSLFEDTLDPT
Summary of the method: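 Confluent OVCAR 3 cells treated with a compound concentration range for 20 h at 37 °C. Lysates analysed by automated capillary immunoblot for CDK1 phospho-T14, with vinculin, fluorescence detection; IC50 by regression.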

[6] = 15 nM PKMYT1 kinase domain, 500 µM ATP, 60 minutes at 26° C., banded
[7] = 15 nM WEE1, 60 minutes at 26° C., banded
[8] = banded, ">N" = at least in this band but could be higher
[9] = PKMYT1 kinase domain 15 nM, banded values

T2 sequence (P30291 whole entry): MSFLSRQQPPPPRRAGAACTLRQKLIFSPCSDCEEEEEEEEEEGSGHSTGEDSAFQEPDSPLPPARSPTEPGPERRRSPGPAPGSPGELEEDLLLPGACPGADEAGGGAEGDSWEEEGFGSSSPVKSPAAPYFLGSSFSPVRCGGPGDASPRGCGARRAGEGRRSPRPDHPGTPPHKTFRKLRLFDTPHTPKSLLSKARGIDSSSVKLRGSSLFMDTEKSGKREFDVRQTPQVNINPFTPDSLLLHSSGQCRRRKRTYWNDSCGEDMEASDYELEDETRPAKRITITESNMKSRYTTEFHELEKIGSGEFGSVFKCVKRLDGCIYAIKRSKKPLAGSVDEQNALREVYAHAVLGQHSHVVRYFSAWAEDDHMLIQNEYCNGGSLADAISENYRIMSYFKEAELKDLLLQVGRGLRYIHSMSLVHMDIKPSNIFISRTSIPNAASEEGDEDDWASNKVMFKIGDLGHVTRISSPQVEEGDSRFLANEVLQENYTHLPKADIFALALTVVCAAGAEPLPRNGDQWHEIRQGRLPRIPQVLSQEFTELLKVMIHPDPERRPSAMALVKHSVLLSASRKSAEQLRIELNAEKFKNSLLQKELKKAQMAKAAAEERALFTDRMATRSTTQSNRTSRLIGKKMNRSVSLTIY

| SMILES | IC50 [1, 6] | IC50 [2, 7] | PKMYT1 vs. WEE1 selectivity [2, 8] | Selectivity ratio KYSE30 Gl50 vs. OVCAR3 Gl50 [3] | GI50 [4] | IC50 [5] | IC50 [1, 9] | IC50 ([2]; WEE1 15 nM, banded values) | PKMYT1 vs. WEE1 selectivity ([2]; banded) |
| --- | --- | --- | --- | --- | --- | --- | --- | --- | --- |
| Cc1ccc(NC(=O)C(C)(C)C)nc1Nc1ncc(C(=O)Nc2c(C)ccc(O)c2C)s1 [BAA-323, N-(3-hydroxy-2,6-dimethylphenyl)-2-((3-methyl-6-pivalamidopyridin-2-yl)amino)thiazole-5-carboxamide] | < 0.05 µM | > 11 µM | Y (1000-5000 fold) | Y (>20 fold) | 0.5 to 5 µM | < 0.1 µM | – | – | – |
| COC[C@H]1CCCN1C(=O)Cn1cc(C)c(Nc2ncc(C(=O)Nc3c(C)ccc(O)c3C)s2)n1 [BAA-599, N-(3-Hydroxy-2,6-dimethyl-phenyl)-2-[[1-[2-[(2R)-2-(methoxymethyl)pyrrolidin-1-yl]-2-oxo-ethyl]-4-methyl-pyrazol-3-yl]amino]thiazole-5-carboxamide] | – | – | – | Y (>20 fold) | > 5 µM | 0.1 to 1 µM | < 0.05 µM | 1 to 11 µM | X (100-<1000 fold) |
| Cc1ccc(F)c(Nc2ncc(C(=O)Nc3c(C)ccc(O)c3C)s2)n1 [BAA-420, 2-((3-fluoro-6-methylpyridin-2-yl)amino)-N-(3-hydroxy-2,6-dimethylphenyl)thiazole-5-carboxamide] | – | – | – | Y (>20 fold) | 0.5 to 5 µM | < 0.1 µM | < 0.05 µM | > 11 µM | Y (1000-5000 fold) |
| Cc1cn(CCF)nc1Nc1ncc(C(=O)Nc2c(C)ccc(O)c2C)s1 [BAA-470, 2-((1-(2-fluoroethyl)-4-methyl-1H-pyrazol-3-yl)amino)-N-(3-hydroxy-2,6-dimethylphenyl)thiazole-5-carboxamide] | – | – | – | Y (>20 fold) | > 5 µM | < 0.1 µM | < 0.05 µM | 1 to 11 µM | X (100-<1000 fold) |
| Cc1cn(-c2cnn(C)c2)nc1Nc1ncc(C(=O)Nc2c(C)ccc(O)c2C)s1 [BAA-385, 2-((1′′,4-dimethyl-1′H-[1,4′-bipyrazol]-3-yl)amino)-N-(3-hydroxy-2,6-dimethylphenyl)thiazole-5-carboxamide] | < 0.05 µM | 1 to 11 µM | X (100-<1000 fold) | Y (>20 fold) | 0.5 to 5 µM | < 0.1 µM | – | – | – |
| Cc1ccc(O)c(C)c1NC(=O)c1cnc(Nc2cc(C(F)(F)F)cc(Cl)n2)s1 [BAA-321, 2-((6-chloro-4-(trifluoromethyl)pyridin-2-yl)amino)-N-(3-hydroxy-2,6-dimethylphenyl)thiazole-5-carboxamide] | 0.05 to 1 µM | > 11 µM | X (100-<1000 fold) | Y (>20 fold) | > 5 µM | 0.1 to 1 µM | – | – | – |
| Cc1ccc(O)c(C)c1NC(=O)c1cnc(Nc2nc(N3CCOCC3)ccc2Cl)s1 [BAA-410, 2-((3-chloro-6-morpholinopyridin-2-yl)amino)-N-(3-hydroxy-2,6-dimethylphenyl)thiazole-5-carboxamide] | – | – | – | Y (>20 fold) | 0.5 to 5 µM | < 0.1 µM | < 0.05 µM | 1 to 11 µM | X (100-<1000 fold) |
| Cc1ccc(O)c(C)c1NC(=O)c1cnc(Nc2cccc(N(C)C(=O)c3c(F)cc(F)cc3F)n2)s1 [BAA-325, N-(3-hydroxy-2,6-dimethylphenyl)-2-((6-(2,4,6-trifluoro-N-methylbenzamido)pyridin-2-yl)amino)thiazole-5-carboxamide] | 0.05 to 1 µM | > 11 µM | Y (1000-5000 fold) | X (3-20 fold) | > 5 µM | < 0.1 µM | – | – | – |
| Cc1cn(-c2ccccc2)nc1Nc1ncc(C(=O)Nc2c(C)ccc(O)c2C)s1 [BAA-361, N-(3-hydroxy-2,6-dimethylphenyl)-2-((4-methyl-1-phenyl-1H-pyrazol-3-yl)amino)thiazole-5-carboxamide] | < 0.05 µM | > 11 µM | X (100-<1000 fold) | Y (>20 fold) | 0.5 to 5 µM | < 0.1 µM | – | – | – |
| Cc1cn(CCF)nc1Nc1ncc(C(=O)Nc2c(C)ccc(O)c2Br)s1 [BAA-565, N-(2-bromo-3-hydroxy-6-methylphenyl)-2-((1-(2-fluoroethyl)-4-methyl-1H-pyrazol-3-yl)amino) thiazole-5-carboxamide] | – | – | – | Y (>20 fold) | > 5 µM | < 0.1 µM | < 0.05 µM | 1 to 11 µM | X (100-<1000 fold) |
| Cc1ccc(NC(=O)C(C)(C)O)nc1Nc1ncc(C(=O)Nc2c(C)ccc(O)c2C)s1.Cl [BAA-342, N-(3-Hydroxy-2,6-dimethylphenyl)-2-((6-(2-hydroxy-2-methylpropanamido)-3-methylpyridin-2-yl)amino)thiazole-5-carboxamide hydrochloride] | < 0.05 µM | > 11 µM | X (100-<1000 fold) | Y (>20 fold) | > 5 µM | < 0.1 µM | – | – | – |
| Cc1ccc(O)c(C)c1NC(=O)c1cnc(Nc2cc(N3CCN(C)CC3)ncn2)s1 [BAA-581, N-(3-hydroxy-2,6-dimethylphenyl)-2-((6-(4-methylpiperazin-1-yl)pyrimidin-4-yl)amino)thiazole-5-carboxamide] | – | – | – | Y (>20 fold) | > 5 µM | < 0.1 µM | < 0.05 µM | 0.05 to 1 µM | W (10-<100 fold) |
| CCN(C(=O)C(CO)n1cc(C)c(Nc2ncc(C(=O)Nc3c(C)ccc(O)c3C)s2)n1)C1CC1 (stereo not drawn) [BAA-592, 2-((1-(1-(cyclopropyl(ethyl)amino)-3-hydroxy-1-oxopropan-2-yl)-4-methyl-1H-pyrazol-3-yl)amino)-N-(3-hydroxy-2,6-dimethylphenyl)thiazole-5-carboxamide] | – | – | – | Y (>20 fold) | > 5 µM | < 0.1 µM | < 0.05 µM | 1 to 11 µM | X (100-<1000 fold) |
| Cc1cc(Nc2ncc(C(=O)Nc3c(C)ccc(O)c3C)s2)nc(NCCC(C)(C)C)n1 [BAA-338, 2-((2-((3,3-Dimethylbutyl)amino)-6-methylpyrimidin-4-yl)amino)-N-(3-hydroxy-2,6-dimethylphenyl)thiazole-5-carboxamide] | < 0.05 µM | 1 to 11 µM | X (100-<1000 fold) | Y (>20 fold) | < 0.5 µM | < 0.1 µM | – | – | – |
| Cc1ccc(-c2cnn(C)c2)nc1Nc1ncc(C(=O)Nc2c(C)ccc(O)c2C)s1 [BAA-396, N-(3-hydroxy-2,6-dimethylphenyl)-2-((3-methyl-6-(1-methyl-1H-pyrazol-4-yl)pyridin-2-yl)amino)thiazole-5-carboxamide] | – | – | – | Y (>20 fold) | 0.5 to 5 µM | < 0.1 µM | < 0.05 µM | 1 to 11 µM | X (100-<1000 fold) |
